This assay has as its target T1, c-kit (Homo sapiens, UniProt P10721).
T1 construct: MO7e (human megakaryocytic leukemia cell line) which had been arrested for 20 hr; endogenous in cells; host or cells: MO7e human megakaryocytic leukemia cell line
Nature of the assay: Inhibitory activity against c-kit autophosphorylation (MO7e cells, h-SCF). Type of assay: cell-based. The settings on record: for IC50: MO7e cells, h-SCF stimulation, read-out: c-kit IC50; for inhibition at 1 µM: Mo7e, figure in parentheses in −( ), at 1000 nM. In outline:
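MO7e cells, arrested for 20 hr, were pretreated with test compound in DMSO for 1 hr and then stimulated with 50 ng/ml h-SCF for 5 min before lysis. Lysates were captured on immobilized anti-phosphotyrosine PY-20, probed with anti-c-kit antibody and HRP anti-rabbit IgG, and read colorimetrically at 450 nm.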

Each structure is given as a SMILES string.

T1 sequence (P10721 26-976): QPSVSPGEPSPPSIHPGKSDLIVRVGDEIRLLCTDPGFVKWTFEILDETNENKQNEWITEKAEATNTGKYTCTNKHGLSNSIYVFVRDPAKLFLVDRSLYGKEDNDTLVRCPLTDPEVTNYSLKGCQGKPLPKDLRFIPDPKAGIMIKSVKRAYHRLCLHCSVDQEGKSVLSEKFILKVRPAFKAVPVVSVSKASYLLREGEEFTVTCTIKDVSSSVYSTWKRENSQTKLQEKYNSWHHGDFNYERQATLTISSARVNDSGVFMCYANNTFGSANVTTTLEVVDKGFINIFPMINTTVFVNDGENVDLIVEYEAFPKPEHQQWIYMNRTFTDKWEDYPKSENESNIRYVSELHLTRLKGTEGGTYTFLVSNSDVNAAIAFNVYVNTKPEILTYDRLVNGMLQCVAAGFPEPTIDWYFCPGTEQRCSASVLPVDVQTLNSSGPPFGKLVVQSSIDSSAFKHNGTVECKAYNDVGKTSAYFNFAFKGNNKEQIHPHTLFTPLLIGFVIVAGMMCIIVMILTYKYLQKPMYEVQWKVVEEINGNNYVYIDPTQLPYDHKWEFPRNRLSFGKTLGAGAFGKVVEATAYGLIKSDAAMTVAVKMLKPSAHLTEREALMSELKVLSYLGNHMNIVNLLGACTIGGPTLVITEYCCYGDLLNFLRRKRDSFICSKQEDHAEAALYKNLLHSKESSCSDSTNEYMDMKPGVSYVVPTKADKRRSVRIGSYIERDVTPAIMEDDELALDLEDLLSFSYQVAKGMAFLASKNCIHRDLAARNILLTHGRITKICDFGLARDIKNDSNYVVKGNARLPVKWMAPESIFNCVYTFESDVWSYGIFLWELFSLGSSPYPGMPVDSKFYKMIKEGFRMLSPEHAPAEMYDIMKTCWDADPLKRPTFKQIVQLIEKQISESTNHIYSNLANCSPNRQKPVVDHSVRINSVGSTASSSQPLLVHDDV

Usually IC50 stands for the concentration that inhibits the measured activity by half. With `COc1cc2nccc(Oc3ccc(NC(=S)NC(=O)CCCCl)c(F)c3)c2cc1OC` [Example 1066, N-(4-Chlorobutanoyl)-N′-{4-[(6,7-dimethoxy-4-quinolyl)oxy]-2-fluorophenyl}thiourea], the IC50 stood at 279 nM.

Regarding `COc1cc2nccc(Oc3ccc(NC(=S)NC(=O)CCSC)c(F)c3)c2cc1OC` [Example 1067, N-{4-[(6,7-Dimethoxy-4-quinolyl)oxy]-2-fluorophenyl}-N′-[3-(methylsulfanyl)propanoyl]thiourea], the IC50 is 449 nM.

As to `COc1cc2nccc(Oc3ccc(NC(=S)NC(=O)CCCCl)cc3F)c2cc1OC` [Example 1068, N-(4-Chlorobutanoyl)-N′-{4-[(6,7-dimethoxy-4-quinolyl)oxy]-3-fluorophenyl}thiourea], the 50% inhibitory concentration (IC50) amounted to 124 nM.

As for `COc1cc2nccc(Oc3ccc(NC(=S)NC(=O)CCSC)cc3F)c2cc1OC` [Example 1069, N-{4-[(6,7-Dimethoxy-4-quinolyl)oxy]-3-fluorophenyl}-N′-[3-(methylsulfanyl)propanoyl]thiourea], the IC50 was determined as 189 nM.

In the case of `COc1ccc(C(=O)NC(=S)Nc2ccc(Oc3ccnc4cc(OC)c(OC)cc34)c(F)c2)cc1OC` [Example 1070, N-(3,4-Dimethoxybenzoyl)-N′-{4-[(6,7-dimethoxy-4-quinolyl)oxy]-3-fluorophenyl}thiourea], the IC50 was 391 nM.

As a reminder, the inhibition is the change of the read-out against control, counted positive when it falls. Regarding `CCCCCCCCCCCCCC(=O)NC(=S)Nc1ccc(Oc2ccnc3cc(OC)c(OC)cc23)cc1F` [Example 1076, N-{4-[(6,7-Dimethoxy-4-quinolyl)oxy]-2-fluorophenyl}-N′-tetradecanoylthiourea], the inhibition at 1 µM was found to be 7%.

With `COc1cc2nccc(Oc3ccc(NC(=S)NC(=O)c4ccccc4Cl)c(C)c3C)c2cc1OC` [Example 1078, N-(2-Chlorobenzoyl)-N′-{4-[(6,7-dimethoxy-4-quinolyl)oxy]-2,3-dimethylphenyl}thiourea], the inhibition at 1 µM stood at 32%.

For the molecule `COc1cc2nccc(Oc3ccc(NC(=S)NC(=O)c4cccc(C)c4)c(C)c3C)c2cc1OC` [Example 1079, N-{4-[(6,7-Dimethoxy-4-quinolyl)oxy]-2,3-dimethylphenyl}-N′-(3-methylbenzoyl)thiourea], the inhibition at 1 µM was found to be 25%.

As for `COc1cc2nccc(Oc3ccc(NC(=S)NC(=O)c4ccc(C)cc4)c(C)c3C)c2cc1OC` [Example 1080, N-{4-[(6,7-Dimethoxy-4-quinolyl)oxy]-2,3-dimethylphenyl}-N′-(4-methylbenzoyl)thiourea], the inhibition at 1 µM turned out to be 0%.

On to `COc1cc2nccc(Oc3ccc(NC(=S)NC(=O)c4ccc(Cl)cc4)c(C)c3C)c2cc1OC` [Example 1082, N-(4-Chlorobenzoyl)-N′-{4-[(6,7dimethoxy-4-quinolyl)oxy]-2,3-dimethylphenyl}thiourea], for which the inhibition at 1 µM was 15%.

In the case of `COc1cc2nccc(Oc3ccc(NC(=S)NC(=O)c4cccc(Cl)c4)c(C)c3C)c2cc1OC` [Example 1083, N-(3-Chlorobenzoyl)-N′-{4-[(6,7-dimethoxy-4-quinolyl)oxy]-2,3-dimethylphenyl}thiourea], the inhibition at 1 µM turned out to be 30%.

For `COc1cc2nccc(Oc3ccc(NC(=S)NC(=O)c4ccccc4)c(C)c3C)c2cc1OC` [Example 1084, N-Benzoyl-N′-{4-[(6,7-dimethoxy-4-quinolyl)oxy]-2,3-dimethylphenyl}thiourea], the inhibition at 1 µM amounted to 30%.

Take `COc1cc2nccc(Oc3ccc(NC(=S)NC(=O)c4ccccc4C)c(C)c3C)c2cc1OC` [Example 1085, N-{4-[(6,7-Dimethoxy-4-quinolyl)oxy]-2,3-dimethylphenyl}-N′-(2-methylbenzoyl)thiourea]: the inhibition at 1 µM stood at 25%.

With `COc1ccc(C(=O)NC(=S)Nc2ccc(Oc3ccnc4cc(OC)c(OC)cc34)c(C)c2C)cc1` [Example 1087, N-{4-[(6,7-Dimethoxy-4-quinolyl)oxy]-2,3-dimethylphenyl}-N′-(4-methoxybenzoyl)thiourea], the IC50 is 495 nM.

For the molecule `COc1cc2nccc(Oc3ccc(NC(=S)NC(=O)c4ccc(F)cc4F)c(C)c3C)c2cc1OC` [Example 1088, N-(2,4-Difluorobenzoyl)-N′-{4-[(6,7-dimethoxy-4-quinolyl)oxy]-2,3-dimethylphenyl}thiourea], the inhibition at 1 µM was 23%.

Consider `COc1cc2nccc(Oc3ccc(NC(=S)NC(=O)c4ccc(Cl)cc4)c(C)c3)c2cc1OC` [Example 1089, N-(4-Chlorobenzoyl)-N′-{4-[(6,7-dimethoxy-4-quinolyl)oxy]-2-methylphenyl}thiourea], for which the inhibition at 1 µM was determined as 28%.

With `COc1cc2nccc(Oc3ccc(NC(=S)NC(=O)c4ccccc4C)c(C)c3)c2cc1OC` [Example 1090, N-{4-[(6,7-Dimethoxy-4-quinolyl)oxy]-2-methylphenyl}-N′-(2-methylbenzoyl)thiourea], the inhibition at 1 µM was found to be 30%.

For the molecule `COc1cc2nccc(Oc3ccc(NC(=S)NC(=O)c4cccc(F)c4)c(C)c3)c2cc1OC` [Example 1091, N-{4-[(6,7-Dimethoxy-4-quinolyl)oxy]-2-methylphenyl}-N′-(3-fluorobenzoyl)thiourea], the inhibition at 1 µM is 39%.

For `COc1cc2nccc(Oc3ccc(NC(=S)NC(=O)c4ccc(F)cc4)c(C)c3)c2cc1OC` [Example 1093, N-{4-[(6,7-Dimethoxy-4-quinolyl)oxy]-2-methylphenyl}-N′-(4-fluorobenzoyl)thiourea], the inhibition at 1 µM amounted to 32%.

Consider `COc1cc2nccc(Oc3ccc(NC(=S)NC(=O)c4ccccc4F)c(C)c3)c2cc1OC` [Example 1094, N-{4-[(6,7-Dimethoxy-4-quinolyl)oxy]-2-methylphenyl}-N′-(2-fluorobenzoyl)thiourea], for which the inhibition at 1 µM was 18%.

On to `COc1cc2nccc(Oc3ccc(NC(=S)NC(=O)c4ccccc4Cl)c(C)c3)c2cc1OC` [Example 1097, N-(2-Chlorobenzoyl)-N′-{4-[(6,7-dimethoxy-4-quinolyl)oxy]-2-methylphenyl}thiourea], for which the inhibition at 1 µM was 8%.

In the case of `COc1cc2nccc(Oc3ccc(NC(=S)NC(=O)c4cccc(C)c4)c(C)c3)c2cc1OC` [Example 1098, N-{4-[(6,7-Dimethoxy-4-quinolyl)oxy]-2-methylphenyl}-N′-(3-methylbenzoyl)thiourea], the inhibition at 1 µM was determined as 41%.

In the case of `COc1cc2nccc(Oc3ccc(NC(=S)NC(=O)c4ccccc4)c(C)c3)c2cc1OC` [Example 1099, N-Benzoyl-N′-{4-[(6,7-dimethoxy-4-quinolyl)oxy]-2-methylphenyl}thiourea], the IC50 worked out at 552 nM.

Take `COc1cc2nccc(Oc3ccc(NC(=S)NC(=O)c4cccc(Cl)c4)c(C)c3)c2cc1OC` [Example 1100, N-(3-Chlorobenzoyl)-N′-{4-[(6,7-dimethoxy-4-quinolyl)oxy]-2-methylphenyl}thiourea]: the inhibition at 1 µM was 18%.

Turning to `COc1cc2nccc(Oc3ccc(NC(=S)NC(=O)c4ccc([N+](=O)[O-])cc4)cc3C)c2cc1OC` [Example 1108, N-{4-[(6,7-Dimethoxy-4-quinolyl)oxy]-3-methylphenyl}-N′-(4-nitrobenzoyl)thiourea], the IC50 was found to be 962 nM.

On to `COc1cc2nccc(Oc3ccc(NC(=S)NC(=O)c4ccccc4)cc3C)c2cc1OC` [Example 1109, N-Benzoyl-N′-{4-[(6,7-dimethoxy-4-quinolyl)oxy]-3-methylphenyl}thiourea], for which the IC50 came to 353 nM.

For the molecule `COc1cc2nccc(Oc3ccc(NC(=S)NC(=O)c4cccc(C)c4)cc3C)c2cc1OC` [Example 1110, N-{4-[(6,7-Dimethoxy-4-quinolyl)oxy]-3-methylphenyl}-N′-(3-methylbenzoyl)thiourea], the IC50 was determined as 113 nM.

Turning to `COc1cc2nccc(Oc3ccc(NC(=S)NC(=O)c4ccc(Cl)cc4)cc3C)c2cc1OC` [Example 1111, N-(4-Chlorobenzoyl)-N′-{4-[(6,7-dimethoxy-4-quinolyl)oxy]-3-methylphenyl}thiourea], the IC50 came out at 405 nM.

For the molecule `COc1cc2nccc(Oc3ccc(NC(=S)NC(=O)c4c(Cl)cccc4Cl)cc3F)c2cc1OC` [Example 1112, N-(2,6-Dichlorobenzoyl)-N′-{4-[(6,7-dimethoxy-4-quinolyl)oxy]-3-fluorophenyl}thiourea], the inhibition at 1 µM worked out at 19%.

For `COc1ccc(C(=O)NC(=S)Nc2ccc(Oc3ccnc4cc(OC)c(OC)cc34)c(F)c2)c(OC)c1` [Example 1113, N-(2,4-Dimethoxybenzoyl)-N′-{4-[(6,7-dimethoxy-4-quinolyl)oxy]-3-fluorophenyl}thiourea], the IC50 was found to be 785 nM.

Take `COc1cc2nccc(Oc3ccc(NC(=S)NC(=O)c4ccc(Cl)cc4Cl)cc3Cl)c2cc1OC` [Example 1114, N-{3-Chloro-4-[(6,7-dimethoxy-4-quinolyl)oxy]phenyl}-N′-(2,4-dichlorobenzoyl)thiourea]: the IC50 worked out at 674 nM.

On to `COc1cc2nccc(Oc3ccc(NC(=S)NC(=O)c4c(Cl)cccc4Cl)cc3Cl)c2cc1OC` [Example 1115, N-{3-Chloro-4-[(6,7-dimethoxy-4-quinolyl)oxy]phenyl}-N′-(2,6-dichlorobenzoyl)thiourea], for which the inhibition at 1 µM was determined as 10%.

As for `COc1cc2nccc(Oc3ccc(NC(=S)NC(=O)c4cc(Cl)cc(Cl)c4)cc3Cl)c2cc1OC` [Example 1116, N-{3-Chloro-4-[(6,7-dimethoxy-4-quinolyl)oxy]phenyl}-N′-(3,5-dichlorobenzoyl)thiourea], the concentration for half-maximal inhibition (IC50) amounted to 878 nM.

In the case of `COc1ccc(C(=O)NC(=S)Nc2ccc(Oc3ccnc4cc(OC)c(OC)cc34)c(Cl)c2)c(OC)c1` [Example 1117, N-{3-Chloro-4-[(6,7-dimethoxy-4-quinolyl)oxy]phenyl}-N′-(2,4-dimethoxybenzoyl)thiourea], the inhibition at 1 µM turned out to be 31%.

In the case of `COc1cc2nccc(Oc3ccc(NC(=S)NC(=O)c4c(Cl)cccc4Cl)cc3)c2cc1OC` [Example 1118, N-(2,6-Dichlorobenzoyl)-N′-{4-[(6,7-dimethoxy-4-quinolyl)oxy]phenyl}thiourea], the inhibition at 1 µM worked out at 0%.

For the origin of these results see patent publication US7135466B2 (Kirin Beer Kabushiki Kaisha, priority 1999, dated 2006).
